Where two headings read alike, the source gives them in different places.
Experiments:
[1] = target: Mcl-1 (Homo sapiens (Human), UniProt Q07820); test: TR-FRET binding assay, FITC-Bak peptide and MBP-tagged Mcl-1; settings: read-out: Ki for Inhibition of Mcl-1 by TR-FRET assay
Protocol: Compounds are diluted in DMSO in a 16-point, semilog serial dilution scheme. […] The plate was mixed and incubated for 3 hours at room temperature. […] TR-FRET signal is plotted and IC50 and Ki values are calculated in the same manner as the fluorescence polarization anisotropy based competition assays.

[2] = system: H929 human cancer cell lines; test: Cellular viability / proliferation (Cell TiterGlo, 72 h); format: cell-based
In short: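 1,000 cells/well, 10% FBS medium; compound added at 24 h, 2-fold dilutions from 50 μM top, DMSO <1% final. 72 h exposure, CellTiterGlo 30 min RT dark, luminescence read. IC50 by 4-parameter fit.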

[3] = Homo sapiens, NCI-H929, 72 h, read-out: GI50 on cellular proliferation of H929 human cancer cell lines, H929 cells, 72 h, Cell TiterGlo, 10% FBS

Mcl-1, sequence (Q07820 172-327): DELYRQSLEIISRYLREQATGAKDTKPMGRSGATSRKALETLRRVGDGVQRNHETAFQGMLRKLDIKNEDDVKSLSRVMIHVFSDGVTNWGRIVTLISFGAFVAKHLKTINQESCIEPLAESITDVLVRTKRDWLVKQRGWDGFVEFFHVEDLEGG

Compound | Ki [1] [nM] | GI50 ([2]; read-out: GI50 on cellular proliferation of H929 human cancer cell lines, H929 cells, 72 h, Cell TiterGlo, 10% FBS) [nM] | GI50 [2, 3] [nM]
COCCn1cc(C(=O)O)c2cc(OC)cc(N3C[C@@H](C)n4c(c(CCCOc5cc(C)c(Cl)c(C)c5)c5ccc(Cl)c(-c6c(C)nn(C)c6C)c54)C3=O)c21 (single isomer, unassigned) [Example 672] | 0.43 | 840 | –
Cc1cc(OCCCc2c3n(c4c(-c5c(C)nn(C)c5C)c(Cl)ccc24)[C@H](C)CN(c2cn(CCN4CCN(C)CC4)c4ccc(-c5ncccn5)cc24)C3=O)cc(C)c1Cl [Example 568, (R)-7-Chloro-10-(3-(4-chloro-3,5-dimethylphenoxy)propyl)-4-methyl-2-(1-(2-(4-methylpiperazin-1-yl)ethyl)-5-(pyrimidin-2-yl)-1H-indol-3-yl)-6-(1,3,5-trimethyl-1H-pyrazol-4-yl)-3,4-dihydropyrazino[1,2-a]indol-1(2H)-one] | 1.8 | – | 280
Cc1cc(OCCCc2c3n(c4c(-c5c(C)nn(C)c5C)c(Cl)ccc24)[C@H](C)CN(c2cc(CN4CCOCC4)cc4cc(C(=O)O)n(C)c24)C3=O)cc(C)c1Cl [Example 623, (R)-7-(7-chloro-10-(3-(4-chloro-3,5-dimethylphenoxy)propyl)-4-methyl-1-oxo-6-(1,3,5-trimethyl-1H-pyrazol-4-yl)-3,4-dihydropyrazino[1,2-a]indol-2(1H)-yl)-1-methyl-5-(morpholinomethyl)-1H-indole-2-carboxylic acid] | < 0.2 | – | < 200
Cc1cc(OCCCc2c3n(c4c(-c5c(C)nn(C)c5C)c(Cl)ccc24)[C@H](C)CN(c2cc(NCCN(C)C)cc4c(C(=O)O)cn(C)c24)C3=O)cc(C)c1Cl [Example 498, (R)-7-(7-chloro-10-(3-(4-chloro-3,5-dimethylphenoxy)propyl)-4-methyl-1-oxo-6-(1,3,5-trimethyl-1H-pyrazol-4-yl)-3,4-dihydropyrazino[1,2-a]indol-2(1H)-yl)-5-((2-(dimethylamino)ethyl)amino)-1-methyl-1H-indole-3-carboxylic acid] | 0.58 | – | 1900
COCCn1c(C(=O)O)cc2c(OC)ccc(N3C[C@@H](C)n4c(c(CCCOc5cc(C)c(Cl)c(C)c5)c5ccc(Cl)c(-c6c(C)n[nH]c6C)c54)C3=O)c21 [Example 728, (R)-7-(7-chloro-10-(3-(4-chloro-3,5-dimethylphenoxy)propyl)-6-(3,5-dimethyl-1H-pyrazol-4-yl)-4-methyl-1-oxo-3,4-dihydropyrazino[1,2-a]indol-2(1H)-yl)-4-methoxy-1-(2-methoxyethyl)-1H-indole-2-carboxylic acid] | < 0.2 | – | 710
Cc1cc(OCCCc2c3n(c4c(-c5c(C)nn(C)c5C)c(Cl)ccc24)[C@H](C)CN(c2cn(C)c4ccc(-n5nccn5)cc24)C3=O)cc(C)c1Cl [Example 662, (R)-7-Chloro-10-(3-(4-chloro-3,5-dimethylphenoxy)propyl)-4-methyl-2-(1-methyl-5-(2H-1,2,3-triazol-2-yl)-1H-indol-3-yl)-6-(1,3,5-trimethyl-1H-pyrazol-4-yl)-3,4-dihydropyrazino[1,2-a]indol-1(2H)-one] | 0.93 | – | 1900
